PMC4887716 (Iranian Journal of Basic Medical Sciences, 2016)
Like-named read-outs stand apart in the source and are kept apart here.

Columns and labels:
P-gp [1] = test: In situ single pass intestinal perfusion; conditions: for increase of digoxin Peff: in situ SPIP
[2] = cited from earlier work
[3] = cited from earlier work; remark: listed apart in the source
P-gp [4] = conditions: cited from earlier work
P-gp [5] = conditions: MDR-MDCK cells; cited from earlier work
Caco-2 cells = test: In vitro cytotoxicity study; type: cell-based, human; conditions: clemastine 0.01-10 µM, 24 hr incubation

Row | Peff of digoxin alone (control) (P-gp [1]; 20 µM digoxin, rat jejunum SPIP) | Structure (SMILES) | elimination half-life [2] | therapeutic level in blood plasma [2] [ng/mL] | therapeutic level in blood plasma ([2]; converted from ng/ml) [nM] | increase of digoxin Peff (P-gp [1]; 0.5 µM clemastine) | increase of digoxin Peff (P-gp [1]; 10 µM clemastine) [%] | solubility in water [3] | P-gp substrate classification (P-gp [4]) | P-gp substrate status from efflux in presence of cyclosporine-A (P-gp [5]) | cytotoxic effect on Caco-2 cells (cell viability, MTT) (Caco-2 cells)
1 | 3.4±0.8 ×10^-5cm/s | C[C@H]1O[C@@H](O[C@H]2[C@@H](O)C[C@H](O[C@H]3[C@@H](O)C[C@H](O[C@H]4CC[C@@]5(C)[C@H](CC[C@@H]6[C@@H]5C[C@@H](O)[C@]5(C)[C@@H](C7=CC(=O)OC7)CC[C@]65O)C4)O[C@@H]3C)O[C@@H]2C)C[C@H](O)[C@@H]1O [digoxin] | – | – | – | – | – | – | – | – | –
2 | – | CN1CCC[C@@H]1CCO[C@](C)(c1ccccc1)c1ccc(Cl)cc1 [clemastine] | approximately 21 hr | 0.7 to 2 | 1.5 to 4.4 | about 65% | ~165 | very slightly soluble in water | non-P-gp-substrate | clemastine is a P-gp substrate | no cytotoxic effect
